37 molecules from patent US20240318150A1, “METHODS FOR OXYFUNCTIONALIZATION OF VARIOUS SUBSTRATES USING BACTERIAL ENZYMES” (GECCO Biotech B.V., priority 2021, published 2024) can be followed below.

This assay deals with T3G1. The assay is described as follows: Substrate conversion (oxyfunctionalization) by purified enzyme T3G1 with H2O2. The assay is classed as biochemical, Proteobacteria bacterium. Conditions: 1 mM substrate; for % conversion: 2 mM H2O2 (1 mM at start, to 2 mM after 90 min), 7 μM enzyme T3G1 (5 + 2 μM). The source says: This prompted us to test the representative enzyme T3G1 against a large panel of various substrates.

As for `C=C(C)C1CC=C(C)CC1` (single isomer, unassigned; (+)) [(+)-limonene], the “% conversion” value was determined as 81%. The “% cis (of product, printed beside % conversion)” value (2 mM H2O2, 7 μM T3G1) is “(97.3% cis)”.
Take `C=CCCCCCCC=C` [1,9-decadiene]: the “% conversion” value is recorded as 15%. For the same molecule, the “% double epoxide” value (2 mM H2O2, 7 μM T3G1) is recorded as 13 % double epoxide.
As to `C=CC(=C)C` [2-methyl-1,3-butadiene], the “% conversion” value is recorded as “trace”.
Still for that read-out and setting: as for `C=C(C)CC` [2-methyl-1-butene], the entry is “trace”; as for `CC(=O)CCC1C(C)=CCCC1(C)C` (stereo not drawn) [7,8-dihydro-α-ionone], 50%.
Still for that read-out and setting: then `C[C@]12CCC(=O)C=C1CCC2=O` [(S)-Hajos-Wiechert ketone], with “trace”.
As to `C=CCCCCCCCC` [Substrate 1-decene, 1-decene], the “% conversion” value is 13%.
Still for that read-out and setting: then `C=CCCCCC` [Substrate 1-heptene, 1-heptene], with “trace”.
Same read-out and setting: as for `C=CCCCC` [Substrate 1-hexene, 1-hexene], the entry is “trace”; as for `C=CCCCCCC` [Substrate 1-octene, 1-octene], 65%; as for `CC12CCC(=O)C=C1CCCC2=O` (centres unmarked) [Wieland-miescher ketone], 10%.
The same measure, in the same setting: as for `C/C=C\CCCC` [cis-2-heptene], the figure is 81%; as for `C/C=C\CCC` [cis-2-hexene], “trace”; as for `C1=C\CCCCCC/1` [cis-cyclooctene], 83%.
Regarding `COc1cc(C)ccc1O` [creosol], the “% conversion” value is listed as “trace”.
`C1=CCCCC1` [cyclohexene]: the “% conversion” value stood at 32%.
On to `CCc1ccccc1` [ethylbenzene], for which the “% conversion” value was “trace”.
In the case of `C1=Cc2ccccc2C1` [indene], the “% conversion” value is 27%.
Still for that read-out and setting: then `CCCCCCCC/C=C\CCCCCCCC(=O)O` [oleic acid], with 19%; and `CC(C)NCC(O)COc1cccc2ccccc12` (centres unmarked) [propanolol, reference compound], with 5%.
With `C=Cc1ccccc1` [styrene], the “% conversion” value was 61%. Moreover, for the setting “2 mM H2O2, 7 μM T3G1”, the “% ee (printed beside % conversion)” value is recorded as “(17% ee)”.
In the case of `CSc1ccccc1` [thioanisole], the “% conversion” value was found to be 40%. Besides, the “% ee (printed beside % conversion)” value (2 mM H2O2, 7 μM T3G1) was “(74% ee)”.
For `C/C=C/CCC` [trans-2-hexene], the “% conversion” value was “trace”.
Same read-out and setting: as for `C/C=C/CCCCC` [trans-2-octene], the figure is 99%.
Same read-out and setting: as for `CC/C=C/CC` [trans-3-hexene], the figure is 40%; as for `CC/C=C/CCCC` [trans-3-octene], 99%; as for `CCC/C=C/CCC` [trans-4-octene], 99%.
Same read-out and setting: as for `C(=C\c1ccccc1)/c1ccccc1` [trans-stilbene], the figure is 17%; as for `CC(=O)/C=C/C1=C(C)CCCC1(C)C` [trans-β-ionone], 48%.
As for `C=C(C)[C@@H]1CCC2=CCC[C@@H](C)[C@]2(C)C1` [valencene], the “% conversion” value was found to be 3%.
Same read-out and setting: as for `C/C=C\C(=O)C1C(C)=CCCC1(C)C` (stereo not drawn) [α-damascone], the figure is 26%; as for `CC1=CCCC(C)(C)C1/C=C/C(C)O` (stereo not drawn) [α-ionol], 61%; as for `CC(=O)/C=C/C1C(C)=CCCC1(C)C` (stereo not drawn) [α-ionone], 61%.
On to `CC=Cc1ccccc1` [β-methyl-styrene], for which the “% conversion” value is given as 86%.
Take `C/C=C/C(=O)C1C(C)C=CCC1(C)C` (centres unmarked) [δ-damascone]: the “% conversion” value turned out to be 16%.
Still for that read-out and setting: as for (−)-carveol, the figure is 4%.
Same read-out and setting: as for terpinene, the figure is 73%.
